The values that follow come from paper PMC3894963, “Expression and Functional Characterization of Membrane-Integrated Mammalian Corticotropin Releasing Factor Receptors 1 and 2 in Escherichia coli” (PLoS ONE, 2014).

One may read the Ki as the dissociation constant of the complex between target and ligand, obtained from inhibition or displacement.

The target in test [1] is T1, mCRFR2β (Mus musculus, UniProt Q60748).
T1 construct: mCRFR2β(Val25-C-term) - PhoA; made in house; host or cells: E. coli (membrane fraction)
As to the kind of experiment: Saturation binding of labeled PD-sauvagine, mCRFR2β in E. coli membranes. The protocol: (§1) The incubation was performed at room temp for 90-120 min, at which time the plates were aspirated and each well was washed with 2×100 μl assay buffer, dried and counted in a γ-counter. Each assay included at least triplicate wells for each concentration, and the assays were repeated at least twice (except where indicated). […] The saturation and competitive binding experiments are analyzed by non-linear regression with the GraphPad Prism program (www.graphpad.com) assuming binding to a single site. Specifically, for saturation binding experiments, binding is determined as a function of increasing concentrations of radioligand. The equation used is y = {(Bmax)^.[radioligand]}/{Kd+[radioligand]}, where y = the specific binding (i.e., total binding-non-specific binding). Competitive binding experiments use a constant concentration of radioligand together with increasing concentrations of competitor. […] Because [radioligand] is <Kd, the Ki = EC50. For multiple determinations, Log (EC50) values were averaged to calculate the values in Table 1. […] In Table 1, the inhibition constant (Ki) values are shown together with the standard error and ranges, calculated assuming log normal distribution.

Test [2] addresses T2, hCRFR1α (Homo sapiens, UniProt P34998).
T2 construct: The cDNAs encoding full-length mature forms of hCRFR1α and mCRFR2β were introduced into pET-26b plasmid; made in house; host or cells: E. coli (membrane fraction)
T2 sequence (P34998 24-415): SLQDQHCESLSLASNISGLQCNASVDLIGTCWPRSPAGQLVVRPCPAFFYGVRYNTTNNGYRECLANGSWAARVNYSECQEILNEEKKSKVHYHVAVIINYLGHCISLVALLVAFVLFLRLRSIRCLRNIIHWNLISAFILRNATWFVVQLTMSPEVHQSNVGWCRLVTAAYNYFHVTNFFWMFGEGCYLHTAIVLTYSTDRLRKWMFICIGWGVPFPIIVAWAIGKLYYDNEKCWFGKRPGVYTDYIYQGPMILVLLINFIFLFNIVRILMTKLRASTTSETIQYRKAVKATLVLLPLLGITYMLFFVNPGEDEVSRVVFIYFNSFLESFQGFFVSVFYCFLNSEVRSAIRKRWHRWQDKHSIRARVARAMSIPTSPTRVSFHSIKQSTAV
Briefly: Saturation binding of labeled PD-sauvagine, hCRFR1α in E. coli membranes. As for the experimental part:
as §1

In test [3] the target is T2, hCRFR1α. As to the kind of experiment: Binding of labeled Ucn1, hCRFR1α in E. coli. As to conditions: data not shown.
Test [4] has as its target T1, mCRFR2β. As to the kind of experiment: Binding of labeled Ucn1, mCRFR2β in E. coli. As to conditions: data not shown.
A further test relates to CRFR1. Set-up: method as in PMID 9415408. As to conditions: CRFR1 in mammalian cells; cited from earlier work.
The target of test [5] is T2, hCRFR1α. Briefly: Competitive displacement of labeled PD-sauvagine, hCRFR1α in E. coli membranes. Type of test: binding. As to conditions: E. coli membranes (Figure 14). As for the experimental part: Each assay included at least triplicate wells for each concentration, and the assays were repeated at least twice (except where indicated).
The saturation and competitive binding experiments are analyzed by non-linear regression with the GraphPad Prism program (www.graphpad.com) assuming binding to a single site. Specifically, for saturation binding experiments, binding is determined as a function of increasing concentrations of radioligand. The equation used is y = {(Bmax)^.[radioligand]}/{Kd+[radioligand]}, where y = the specific binding (i.e., total binding-non-specific binding). Competitive binding experiments use a constant concentration of radioligand together with increasing concentrations of competitor. […] Because [radioligand] is <Kd, the Ki = EC50. For multiple determinations, Log (EC50) values were averaged to calculate the values in Table 1. […] In Table 1, the inhibition constant (Ki) values are shown together with the standard error and ranges, calculated assuming log normal distribution.

In test [6] the target is T1, mCRFR2β. Briefly: Competitive displacement of labeled astressin, mCRFR2β in E. coli membranes. It is filed as binding. Conditions: for Displacement of bound labeled astressin: mCRFR2β, E. coli membranes (Figure 11B). As for the experimental part: as §1
In a further test the test system is CRFR1 / CRFR2. As to conditions: introduction; cited from earlier work. From the text:
In most vertebrates there are two highly conserved tissue-specifically expressed CRFRs, designated type 1 [15] and type 2 [16], encoded by different genes and approximately 70% identical to each other at the amino acid level. CRFR1 is relatively more abundant in the nervous system, including the pituitary, while CRFR2 is particularly expressed in the heart, skeletal muscle, and gastrointestinal tract. […] The main type 1 isoform in human, ra ...

Test [7] has as its target T1, mCRFR2β. As to the kind of experiment: Binding of labeled sauvagine, mCRFR2β in E. coli. As to conditions: mCRFR2β expressed in E. coli, [^125I-Tyr^0,Glu^1,Nle^17]-sauvagine. As for the experimental part: (§2) The incubation was performed at room temp for 90–120 min, at which time the plates were aspirated and each well was washed with 2×100 µl assay buffer, dried and counted in a γ-counter. Each assay included at least triplicate wells for each concentration, and the assays were repeated at least twice (except where indicated).

Test [8] deals with T2, hCRFR1α. Briefly: Binding of labeled sauvagine, hCRFR1α in E. coli. As to conditions: hCRFR1α expressed in E. coli, [^125I-Tyr^0,Glu^1,Nle^17]-sauvagine. The protocol: as §2
The subject of a further test is ECD-1s of the CRFRs. As to conditions: cited from earlier work. The source says: Further, the CRFRs' coupling to G-proteins in mammalian cells is important for the high affinity binding of agonists, such as sauvagine and CRF, ...
Test [9] addresses T2, hCRFR1α. As to the kind of experiment: Competitive displacement of labeled astressin, hCRFR1α in E. coli membranes. Type of test: binding. Conditions: E. coli membranes (Figure 11A). As for the experimental part: as §1
Where [10] appears, read: labeled PD-sauvagine versus labeled astressin, printed with ref [55].
[11] abbreviates: nanomolar concentrations, Kd not determined (Figure S3).
[12] abbreviates: listed as labeled agonist sauvagine.

Entries after “also recorded” stand apart in the source; their conditions may differ. Ends that are not written are not given here.

T1 sequence (Q60748 25-431 isoform Q60748-2): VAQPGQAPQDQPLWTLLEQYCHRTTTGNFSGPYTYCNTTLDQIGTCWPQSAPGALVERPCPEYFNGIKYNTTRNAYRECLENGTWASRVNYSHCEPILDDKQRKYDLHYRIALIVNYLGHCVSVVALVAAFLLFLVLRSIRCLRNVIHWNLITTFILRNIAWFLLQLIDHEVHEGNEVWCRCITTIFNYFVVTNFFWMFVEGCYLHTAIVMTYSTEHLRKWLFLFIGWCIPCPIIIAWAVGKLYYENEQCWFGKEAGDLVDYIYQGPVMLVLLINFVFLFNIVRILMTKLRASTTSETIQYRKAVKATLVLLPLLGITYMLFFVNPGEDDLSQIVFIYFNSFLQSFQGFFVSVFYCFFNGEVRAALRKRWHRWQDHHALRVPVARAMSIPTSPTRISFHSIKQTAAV

On to “[^125I-Tyr^0,Glu^1]PD-sauvagine [labeled PD-sauvagine]”, for which the “Binding of labeled PD-sauvagine” value at mCRFR2β [1] was “do bind the other labeled agonist, PD-sauvagine”; at hCRFR1α [2] it was “do bind the other labeled agonist, PD-sauvagine”. Moreover, the “Number of sites detected” value on mCRFR2β [1] (setting [10]) and at hCRFR1α [2] (setting [10]) was “less than that detected by labeled astressin” in each case. The “Saturation of binding” value at mCRFR2β [1] (setting [11]) and at hCRFR1α [2] (setting [11]) was “at nanomolar concentrations the binding did not saturate” in each case.

For the compound “labeled Ucn1: labeled Ucn1, binding data not shown (DNPSLSIDLTFHLLRTLLELARTQSQRERAEQNRIIFDSV; ends and bridges not checked; also: labeled (label not given here); UniProt P55089 83-122, looked up)”, the “Binding of labeled Ucn1” value in the test with hCRFR1α [3] and with mCRFR2β [4] was “observed binding of labeled Ucn1 to the receptors” in each case.

Regarding `CCCCN(CC)c1nc(C)nc2c1c(C)c(C)n2-c1c(C)cc(C)cc1C` [antalarmin], the “Binding site” value in the test with CRFR1 was “binds to a site defined by residues in transmembrane domains 3 and 5 of CRFR1”. The “Displacement of bound labeled PD-sauvagine” value at hCRFR1α [5] is reported as “displaces labeled PD-sauvagine bound to hCRFR1α (Figure 14) in a dose dependent manner; also recorded: competitively displaces labeled PD-sauvagine bound to a small percentage of the hCRFR1α expressed in E. coli membranes”.

Take “mUcn3: CRFR2-selective ligand, mouse (FTLSLDVPTNIMNILFNIDKAKNLRAKAAANAQLMAQI; ends and bridges not checked; UniProt Q924A4 123-160, looked up)”: in the test with mCRFR2β [6], the “Displacement of bound labeled astressin” value was “does not compete for binding to mCRFR2β”. In addition, the “Relative affinity for CRFR1 and CRFR2” value in the test with CRFR1 / CRFR2 is on record as “selective for CRFR2”.

For the compound “[^125I-Tyr^0,Glu^1,Nle^17]-sauvagine [labeled sauvagine]”, the “Binding of labeled sauvagine” value is “fail to bind labeled sauvagine” on mCRFR2β [7], “do not bind the labeled agonist sauvagine” at mCRFR2β [7] (setting [12]), “fail to bind labeled sauvagine” at hCRFR1α [8] and “do not bind the labeled agonist sauvagine” on hCRFR1α [8] (setting [12]).

Regarding `CC[C@H](C)[C@H](NC(=O)[C@H](CO)NC(=O)[C@H](CC(C)C)NC(=O)[C@@H]1CCCN1C(=O)[C@@H]1CCCN1C(=O)[C@H](CC(=O)O)NC(=O)[C@@H](N)CC(=O)O)C(=O)N[C@@H](CC(=O)O)C(=O)N[C@@H](CC(C)C)C(=O)N[C@H](C(=O)N[C@@H](Cc1ccccc1)C(=O)N[C@@H](Cc1c[nH]cn1)C(=O)N[C@@H](CC(C)C)C(=O)N[C@@H](CC(C)C)C(=O)N[C@@H](CCCNC(=N)N)C(=O)N[C@H](C(=O)N[C@@H](CC(C)C)C(=O)N[C@@H](CC(C)C)C(=O)N[C@@H](CCC(=O)O)C(=O)N[C@@H](CC(C)C)C(=O)N[C@@H](C)C(=O)N[C@@H](CCCNC(=N)N)C(=O)N[C@H](C(=O)N[C@@H](CCC(N)=O)C(=O)N[C@@H](CO)C(=O)N[C@@H](CCC(N)=O)C(=O)N[C@@H](CCCNC(=N)N)C(=O)N[C@@H](CCC(=O)O)C(=O)N[C@@H](CCCNC(=N)N)C(=O)N[C@@H](C)C(=O)N[C@@H](CCC(=O)O)C(=O)N[C@@H](CCC(N)=O)C(=O)N[C@@H](CC(N)=O)C(=O)N[C@@H](CCCNC(=N)N)C(=O)N[C@H](C(=O)N[C@H](C(=O)N[C@@H](Cc1ccccc1)C(=O)N[C@@H](CC(=O)O)C(=O)N[C@@H](CO)C(=O)N[C@H](C(N)=O)C(C)C)[C@@H](C)CC)[C@@H](C)CC)[C@@H](C)O)[C@@H](C)O)[C@@H](C)O` [rUcn1], the Ki at mCRFR2β [6] (read-out: Inhibitory binding constant (Ki)) was 11.5 nM.

“r/hCRF: CRF is a 41-amino acid (aa) peptide synthesized in the hypothalamus”: the “Relative affinity for CRFR1 and CRFR2” value with CRFR1 / CRFR2 is given as “tenfold higher affinity for CRFR1 than for CRFR2”.

Turning to sauvagine, the “Binding to ECD-1s” value with ECD-1s of the CRFRs is reported as “does not bind to the isolated ECD-1s”. For the same compound, the “Displacement of bound labeled astressin” value at mCRFR2β [6] and at hCRFR1α [9] was “does not displace labeled astressin bound to either receptor” throughout.
